# From patent publication EP1849776A1, “Azepane- or Azocane-substituted pyrazoline compounds, their preparation and use as medicaments” (LABORATORIOS DEL DR. ESTEVE, S.A., priority 2006, dated 2007)
# Key:
# [1] = molecular target: T1, CB1-Receptor (Homo sapiens, UniProt P21554); assay: In-vitro determination of affinity to CB1 receptor (radioligand binding); conditions: transfected human CB1 receptors of Receptor Biology, Inc.; radioligand [^3H]-CP55940; read-out: CB1-Receptor Radiologand:[^3H]-CP55940 IC50
# T1 construct: purchased Receptor Biology, Inc
# T1 sequence (P21554 whole entry): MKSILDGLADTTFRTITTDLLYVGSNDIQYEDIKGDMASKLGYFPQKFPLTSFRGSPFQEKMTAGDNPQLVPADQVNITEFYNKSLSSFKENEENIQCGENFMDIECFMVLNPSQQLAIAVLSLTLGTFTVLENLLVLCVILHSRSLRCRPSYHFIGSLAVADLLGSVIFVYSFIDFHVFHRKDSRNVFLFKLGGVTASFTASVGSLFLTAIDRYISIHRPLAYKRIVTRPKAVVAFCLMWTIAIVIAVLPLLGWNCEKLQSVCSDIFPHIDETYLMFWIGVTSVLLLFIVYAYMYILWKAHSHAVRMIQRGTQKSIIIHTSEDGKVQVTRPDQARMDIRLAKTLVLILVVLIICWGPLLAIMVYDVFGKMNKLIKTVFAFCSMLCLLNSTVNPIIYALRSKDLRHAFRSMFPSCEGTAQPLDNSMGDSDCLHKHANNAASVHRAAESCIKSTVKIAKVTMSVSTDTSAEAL
# Method: The in-vitro determination of the affinity of the inventive quaternary ammonium salts of substituted pyrazoline compounds to CB1/CB2-Rezeptors is carried out as described in the publication of Ruth A. Ross, Heather C. Brockie et al., "Agonist-inverse agonist characterization at CB1 and CB2 cannabinoid receptors of L-759633, L759656 and AM630", British Journal of Pharmacology, 126, 665-672, (1999), whereby the transfected human CB1 and CB2 receptors of Receptor Biology, Inc. are used. The radioligand used for both receptors is [^3H]-CP55940. The respective parts of the description are hereby incorporated by reference and forms part of the present disclosure.
# [2] = test system: Male NMRI mice; assay: Mouse tetrad model, antagonistic activity against Win 55212-2; assay type: in vivo; conditions: against Win 55212-2 (1.25 mg/kg intravenous), substance injected 5 minutes before the agonist, tetrad component not specified
# Excerpt: Substances with affinity for cannabinoid receptors are known to produce a wide range of pharmacological effects. It is also known that intravenous administration of a substance with affinity for cannabinoid receptors in mice produces analgesia , hypothermia, sedation and catalepsy. Individually, none of these effects can be considered as proof that a tested substance has affinity for cannabinoid-receptors, since all of these effects are common for various classes of centrally active agents. However, substances, which show all of these effects, i.e. substances that are active in this so-called tetrad model are considered to have affinity for the cannabinoid receptors. It has further been shown that cannabinoid receptor antagonists are higly effective in blocking the effects of a cannabinoid agonist in the mouse tetrad model.
# The tetrad model is described, for example, in the publication of A. C. Howlett et al, International Union of Pharmacology XXVII. […]
# Before testing in the behavioral procedures given below, mice are acclimatized to the experimental setting. Pre-Treatment control values are determined for analgesia hot plate latency (in seconds), rectal temperature, sedation and catalepsy.
# In order to determine the agonistic activty of the substance to be tested, the mice are injected intravenously with the substance to be tested or the vehicle alone. 15 minutes after injection, latency in hot plate analgesia is measured. Rectal temperature, sedation and catalepsy are measured 20 minutes after injection.
# In order to determine the antagonistic activity the identical procedure is used as for the determination of the agonistic effects, but with the difference that the substance to be evaluated for its antagonistic activity is injectected 5 minutes before the intravenous injection of 1.25 mg/kg Win-55,212 a known cannabinoid-receptor agonist.
# The hot plate analgesia is determined according to the method described in Woolfe D. et al. "The evaluation of analgesic action of pethidine hydrochloride (Demerol)", J. Pharmacol. Exp. Ther. 80, 300-307,1944. […]
IC50 [1],Compound,Antagonistic Effect in (%) [2]
25 nM,"O=C(NN1CCCCCC1)C1=NN(c2ccc(Cl)cc2Cl)C(c2ccc(Cl)cc2)C1 (centres unmarked) [Example 1, N-(azepan-1-yl)-5-(4-chlorophenyl)-1-(2,4-dichlorophenyl)-4,5-dihydro-1H-pyrazole-3-carboxamide]",116±2%
7.9 nM,"O=C(NN1CCCCCC1)C1=NN(c2ccc(Cl)cc2Cl)[C@@H](c2ccc(Cl)cc2)C1 [Example 2, (R)-N-(azepan-1-yl)-5-(4-chlorophenyl)-1-(2,4-dichlorophenyl)-4,5-dihydro-1H-pyrazole-3-carboxamide]",137.2%
,"O=C(NN1CCCCCC1)C1=NN(c2ccc(Cl)cc2Cl)C(c2ccc(Br)cc2)C1 (centres unmarked) [Example 4, N-(azepan-1-yl)-5-(4-bromophenyl)-1-(2,4-dichlorophenyl)-4,5-dihydro-1H-pyrazole-3-carboxamide]",100±6%
